In ChEMBL document CHEMBL1201862, “PubChem BioAssay data set” (2004):
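48-hour exposure; five concentrations; linearly interpolated endpoints. GI50 = concentration required for 50% inhibition of growth.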 The source made the active and inactive calls. Cut-off read from the data, not from the text of the source: active = GI50 up to about 1.1 µM and inactive = higher.

Key:
Experiment in all cases: NCI tumour cell line growth inhibition, 48 h
[1] = tested on: CCRF-CEM
[2] = tested on: NCI-H226
[3] = tested on: RPMI-8226
[4] = tested on: U-251
[5] = tested on: SK-MEL-28
[6] = tested on: 786-0
[7] = tested on: COLO 205
[8] = tested on: SN12C
[9] = tested on: CAKI-1
[10] = tested on: SK-MEL-2
[11] = tested on: IGROV-1
[12] = tested on: TK-10
[13] = tested on: HOP-92
[14] = tested on: MOLT-4
[15] = tested on: ACHN
[16] = tested on: SK-OV-3
[17] = tested on: SR

Measured: GI50

O=C(N/C(=C\c1ccc(/C=C(\NC(=O)c2ccccc2)c2nc3ccccc3s2)cc1)c1nc2ccccc2s1)c1ccccc1
inactive: [1] 1.56 µM | [2] 19.1 µM | [3] 3.64 µM | [4] 2.59 µM | [5] 11.1 µM | [6] 1.82 µM | [7] 5.12 µM | [8] 3.99 µM | [9] 14.9 µM | [10] 6.62 µM | [11] 3.85 µM | [12] 12.7 µM | [13] 12.5 µM | [14] 4.99 µM | [15] 4.59 µM

Cc1c(C#N)c(=O)[nH]c(=O)n1CCN1CCN(C(=O)NCCCCCCNC(=O)N2CCN(CCn3c(C)c(C#N)c(=O)[nH]c3=O)CC2)CC1
inactive: [1] > 100 µM | [3] > 100 µM | [4] > 100 µM | [5] > 100 µM | [6] > 100 µM | [7] > 100 µM | [8] > 100 µM | [9] > 100 µM | [16] > 100 µM | [11] > 100 µM | [12] > 100 µM | [13] > 100 µM | [14] > 100 µM | [15] > 100 µM

N#Cc1cccc(C2C(=O)c3ccc(C(=O)c4ccc5c(c4)C(=O)N(c4ccc(Oc6ccc(N7C(=O)c8ccc(C(=O)c9ccc%10c(c9)C(=O)N(c9cccc(C#N)c9)C%10=O)cc8C7=O)cc6)cc4)C5=O)cc3C2=O)c1 (centres undefined)
inactive: [1] > 100 µM | [3] > 100 µM | [4] > 100 µM | [5] > 100 µM | [6] > 100 µM | [7] > 100 µM | [8] > 100 µM | [10] > 100 µM | [11] > 100 µM | [12] 40.2 µM | [13] > 100 µM | [14] > 100 µM | [15] > 100 µM

CCCCNC(=S)Nn1c(-c2ccccc2)nc2ccccc2c1=O
inactive: [1] 38.3 µM | [2] > 100 µM | [3] > 100 µM | [4] > 100 µM | [5] 9.68 µM | [6] > 100 µM | [7] > 100 µM | [8] > 100 µM | [9] > 100 µM | [16] > 100 µM | [10] > 100 µM | [11] > 100 µM | [12] > 100 µM | [13] 67.3 µM | [14] 49.9 µM | [15] > 100 µM

N[C@H](C(=O)O)[C@@H](Cl)CC(=O)O
inactive: [1] > 100 µM | [2] > 100 µM | [3] > 100 µM | [4] > 100 µM | [5] > 100 µM | [6] > 100 µM | [7] > 100 µM | [8] > 100 µM | [9] > 100 µM | [16] > 100 µM | [10] > 100 µM | [11] > 100 µM | [12] > 100 µM | [13] > 100 µM | [14] > 100 µM | [15] > 100 µM

Cc1cc(C)c(S(=O)(=O)ONC(=O)OC(C)(C)C)c(C)c1
inactive: [1] > 100 µM | [3] > 100 µM | [4] > 100 µM | [5] > 100 µM | [6] > 100 µM | [7] > 100 µM | [8] > 100 µM | [9] > 100 µM | [16] > 100 µM | [10] > 100 µM | [11] > 100 µM | [12] > 100 µM | [13] > 100 µM | [14] > 100 µM | [15] > 100 µM

O=[N+]([O-])c1ccc2nc(/C(=N/Nc3ccccc3)C(O)c3ccco3)c(O)nc2c1 (centres undefined)
inactive: [1] 27.2 µM | [2] 15.7 µM | [3] 58.3 µM | [4] > 100 µM | [6] > 100 µM | [7] > 100 µM | [8] > 100 µM | [9] 85.5 µM | [10] > 100 µM | [11] > 100 µM | [17] 55.2 µM | [14] > 100 µM | [15] > 100 µM

Nn1c(-c2ccccc2)nc2ccc(Br)cc2c1=O
inactive: [1] 20.2 µM | [2] 57.5 µM | [3] 30.9 µM | [4] 41.4 µM | [5] > 100 µM | [6] 47.2 µM | [7] 32.1 µM | [8] 42.7 µM | [9] 38.5 µM | [16] 61.5 µM | [10] 57.1 µM | [11] 44.8 µM | [12] > 100 µM | [13] 12.8 µM | [14] 17.9 µM | [15] 34.8 µM

NC(=O)C(=O)C1CCC2=C(Sc3ccccc3N2)C1=O (centres undefined)
inactive: [1] > 10 µM | [3] > 100 µM | [4] > 100 µM | [5] > 100 µM | [6] > 100 µM | [7] > 100 µM | [9] > 100 µM | [16] > 100 µM | [10] > 100 µM | [11] > 100 µM | [12] > 100 µM | [13] 27.4 µM | [14] > 100 µM | [15] > 100 µM

Cc1cccc(-c2nnc3s/c(=C\c4ccc(N(C)C)cc4)c(=O)n23)c1
inactive: [1] > 100 µM | [2] > 100 µM | [3] > 100 µM | [4] > 100 µM | [5] > 100 µM | [6] > 100 µM | [7] > 100 µM | [8] > 100 µM | [9] > 100 µM | [16] > 100 µM | [10] > 100 µM | [11] > 100 µM | [12] > 100 µM | [13] > 100 µM | [14] > 100 µM | [15] > 100 µM

COc1ccccc1NC(=O)C1=C(C)NC(C)=C(C(=O)Nc2ccccc2OC)C1c1ccc(C)cc1
inactive: [2] 10.5 µM | [3] 37.8 µM | [4] > 100 µM | [5] > 100 µM | [6] > 100 µM | [7] 12.6 µM | [8] > 100 µM | [9] > 100 µM | [16] > 100 µM | [10] 48.2 µM | [11] 58.7 µM | [12] 69.5 µM | [13] > 100 µM | [15] 17.3 µM

CCCC(O)c1ccc2[nH]c3c(C)cc([N+](=O)[O-])c(C)c3c2c1 (centres undefined)
inactive: [1] > 100 µM | [2] > 100 µM | [3] 62.1 µM | [5] > 100 µM | [6] 27.4 µM | [7] 93.1 µM | [8] > 100 µM | [9] > 100 µM | [10] > 100 µM | [12] 23 µM | [17] > 100 µM | [14] > 100 µM | [15] > 100 µM

O=C(Oc1ccc2c(-c3ccccc3)c(C(=O)Nc3ccc(Cl)cc3)c(=O)oc2c1)c1ccccc1
inactive: [1] > 100 µM | [2] > 100 µM | [3] > 100 µM | [4] > 100 µM | [5] > 100 µM | [6] > 100 µM | [7] > 100 µM | [8] > 100 µM | [16] > 100 µM | [10] > 100 µM | [11] > 100 µM | [12] > 100 µM | [14] 74.1 µM | [15] > 100 µM
